Assay results published in US9249115B2, “N,N1 substituted piperazines having combined antiaggregant, anticoagulant and vasodilatory activity, and method for producing same” (Vertex Closed Joint Stock Company, priority 2011, dated 2016).

Legend:
[1] = tested on: mesentery arterioles; assay: Vasodilator properties, microcirculatory vessel responsiveness to noradrenalin, arterioles; assay type: in vivo, Wistar male rats
Procedure: (§1) Vasodilator properties of N,N′-substituted piperazines were evaluated according to their influence on microcirculatory vessel responsiveness.
(§2) The studies were done on Wistar male rats with mass of 300±30 g (laboratory animals nursery “Rappolovo”, RAMS). The animals were kept with unlimited food (standard ration for laboratory rats K-120 by <<Inform-korm>>, Russia) and water allowance.
(§3) The solutions of N,N′-substituted piperazines and physiological (control) solution were introduced via bolus injection within 1 min into caudal vein of non-anaesthetized animals according to the dosage of 5.0 ml per 1 kg. Immediately after the introduction the animals were put in separate standard cages for observation.
(§4) In 30 min after the injection the animals were anaesthetized (thiopental sodium, 60 mg/kg intraperitoneally). The loop of small intestine adjoined to mesoappendix was retrieved through inferomedian incision. To study microcirculation in mesentery venules and arterioles in transmitted light the rat was placed on thermostated microscope objective table. The application of noradrenalin solution (Aguettant, 2 mg/ml, Laboratoire AGUETTANT, France) was done directly on the mesentery (Furness J. B., Marshall J. M., 1974; Yantareva L. I., 2004).
(§5) The study of microcirculatory vessels was done with LUMAM I1 microscope (LOMO, Russia). The recording of video data was done with the camera (Optics and Electronics ISTA Ltd) attached to a personal computer. The processing of data was done with Video-Test 4.0 software (ISTA Ltd., Russia). The diameter of the vessel wall (D, m) before and after the application of noradrenalin and the starting time of blood flow slowdown induced by noradrenalin were measured (the measurements were done for 1 min after the application).

[2] = tested on: ADP-induced thrombocyte aggregation; assay: ADP-induced thrombocyte aggregation, donor human thrombocyte enriched plasm; assay type: cell-based; conditions: ADP inductor; for MA, %: human thrombocyte plasm
Method in brief: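 Citrated donor human platelet-rich plasma, normalized to 200-250×10^9/L platelets, was preincubated with compound in Tris-HCl pH 7.4 for 5 min at 37 °C. Aggregation induced by ADP was followed for 3 min by light transmission with stirring at 1200 rpm. Maximum amplitude was taken as % transmittance relative to platelet-free plasma.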

[3] = tested on: thrombocyte depleted plasm coagulation; assay: Activated partial thromboplastin time (APTT), anticoagulant properties; assay type: biochemical, human; conditions: for APTT: thrombocyte depleted plasm
Procedure: The study of antiaggregant and anticoagulant properties of N,N′-substituted piperazines on the sample of donor human blood. The blood was collected by donor ulnar vein punction with dry sharp needle without syringe. The administration of drugs that influence on thrombocyte function was cancelled in 7÷10 days before the experiment.
In graduated plastic centrifuge tube 1 ml of 3.8% basic trisodium citrate solution with pH=7.4 was placed. The ulnar vein was punctuated, the freely effluent blood was collected up to 10 ml mark, the mixture was instantly stirred to prevent air bubbles appearance. The collected and stabilized blood was split in two 5 ml portions in two tubes.
To obtain thrombocyte enriched plasm the stabilized blood was spinned at 1000 rpm (150 g) for 8 min at room temperature. The repeated spinning of the blood at 3200 rpm (2300 g) for 20 min at 22° C. yielded thrombocyte depleted plasm.
To study anticoagulant properties of N,N′-substituted piperazines activated partial thromboplastin time (APTT) was measured. That is the ability of N,N′-substituted piperazines to increase thrombocyte depleted plasm coagulation time compared to the ability of control sample. The set of reagents for APTT determination (Russian Scientific Research Institute of Hematology and Transfusiology Ministry of Health of Russian Federation by Technical Regulation 9398-214-01966456-99) and COAG-A-MATE® XM coagulometer (ORGANON TEKNIKA, USA) were used.
The solutions of N,N′-substituted piperazines were mixed with thrombocyte depleted plasm at 1:1 ratio, then 0.1 ml of APTT reagent was added, the mixture was incubated in the cuvette for 5 min at 37° C., then 0.1 ml of 0.277% CaCl2 solution was added. The time of coagulation (in seconds) was measured.

[4] = tested on: mesentery venules; assay: Vasodilator properties, microcirculatory vessel responsiveness to noradrenalin, venules; assay type: in vivo, Wistar male rats
Procedure: as §1, §2, §3, §4, §5

[5] = tested on: Collagen-induced thrombocyte aggregation; assay: Collagen-induced thrombocyte aggregation, donor human thrombocyte enriched plasm; assay type: cell-based; conditions: collagen inductor; for MA, %: human thrombocyte plasm
Method in brief: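 Citrated donor platelet-rich plasma normalized to 200-250×10^9/L was preincubated with compound in Tris-HCl pH 7.4 for 5 min at 37° C. before adding collagen diluted to 10 µg/ml. Aggregation was followed turbidimetrically for 3 min at 1200 rpm stirring, as maximum amplitude (% transmittance relative to platelet-poor plasma).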

[6] = 0.01 mmol/kg, noradrenalin 10^−6 g/ml
[7] = 0.025 mmol/kg, noradrenalin 10^−7 g/ml
[8] = Homo sapiens, 1.25 mmol/L, read-out: (MA0-MAx): MA0 * 100%
[9] = Homo sapiens, 5.0 mmol/L, read-out: (MA0-MAx): MA0 * 100%
[10] = Homo sapiens, 7.5 mmol/L, read-out: (MA0-MAx): MA0 * 100%

For O=C(O)/C=C/c1ccc(Cn2ccnc2)cc1 [Ozagrel, reference compound], the “% of vessel constriction” value [1, 6] was 80%, the “Blood flow slowdown, Latent period of slowdown” value [1, 6] was 27 ± 6 s and the “% of vessel constriction” value [1, 7] was 27%. For the same molecule, the “Blood flow slowdown, Latent period of slowdown, s” value [1, 7] was “No slowdown”, the “MA, %” value ([2]; 1.25 mmol/L) was 12.9 ± 2.1% and the “MA, %” value ([2]; 2.50 mmol/L) was 10.6 ± 2.5%. The “MA, %” value ([2]; 5.0 mmol/L) was 9.6 ± 2.5%, the “MA, %” value ([2]; 7.5 mmol/L) was 4.2 ± 1.2% and the inhibition at 1250 µM [2, 8] was 2.3%. It also gave an inhibition at 2500 µM ([2]; Homo sapiens, 2.50 mmol/L, read-out: (MA0-MAx): MA0 * 100%) of 19.7%, an inhibition at 5000 µM [2, 9] of 63.6% and an inhibition at 7500 µM [2, 10] of 68.2%. For the same molecule, the “(APTTx-APTT0): APTT0 * 100%” value ([3]; 2.5 mmol/L) was 7.2%, the “APTT” value ([3]; 2.5 mmol/L) was 51.8 ± 1.7 s and the “(APTTx-APTT0): APTT0 * 100%” value ([3]; 4.1 mmol/L) was 10.0%. The “APTT” value ([3]; 4.1 mmol/L) was 53.1 ± 3.0 s, the “(APTTx-APTT0): APTT0 * 100%” value ([3]; 8.3 mmol/L) was 19.9% and the “APTT” value ([3]; 8.3 mmol/L) was 57.9 ± 2.5 s. For the same molecule, the “(APTTx-APTT0): APTT0 * 100%” value ([3]; 12.5 mmol/L) was 29.8%, the “APTT” value ([3]; 12.5 mmol/L) was 62.7 ± 2.1 s and the “% of vessel constriction” value [4, 6] was 44%. The “Blood flow slowdown, Latent period of slowdown” value [4, 6] was 32 ± 4 s, the “% of vessel constriction” value [4, 7] was 27% and the “Blood flow slowdown, Latent period of slowdown, s” value [4, 7] was “No slowdown”. The “MA, %” value ([5]; 0.5 mmol/L) was 74.3 ± 7.9%, the “MA, %” value ([5]; 1.25 mmol/L) was 64.1 ± 12.0% and the “MA, %” value ([5]; 2.5 mmol/L) was 60.0 ± 2.5%. For the same molecule, the “MA, %” value ([5]; 5.0 mmol/L) was 54.0 ± 12.9%, the “MA, %” value ([5]; 7.5 mmol/L) was 34.2 ± 11.2% and the inhibition at 500 µM ([5]; Homo sapiens, 0.5 mmol/L, read-out: (MA0-MAx): MA0 * 100%) was 3.1%. For the same molecule, the inhibition at 1250 µM [5, 8] was 16.4%, the inhibition at 2500 µM ([5]; Homo sapiens, 2.5 mmol/L, read-out: (MA0-MAx): MA0 * 100%) was 21.8% and the inhibition at 5000 µM [5, 9] was 29.6%. For the same molecule, the inhibition at 7500 µM [5, 10] was 55.4%.
